Usually Kd stands for the concentration at which binding is half-saturated. A higher Kd goes with weaker binding.

What all share (type): cell membranes
In assay [1] the target is T1, Ras-related protein Rap-1A (Homo sapiens, UniProt P62834).
T1 sequence (P62834 whole entry): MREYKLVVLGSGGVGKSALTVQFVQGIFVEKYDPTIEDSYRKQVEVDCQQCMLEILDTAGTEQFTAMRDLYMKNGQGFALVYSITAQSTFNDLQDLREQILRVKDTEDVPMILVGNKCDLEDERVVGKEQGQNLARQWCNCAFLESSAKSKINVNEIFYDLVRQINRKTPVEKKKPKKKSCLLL
As to the kind of experiment: Binding affinity to RAP1A in human RBC membrane by Western blot analysis. (In general: A western blot detects proteins with antibodies after separation by electrophoresis.)

The target of assay [2] is T1, Ras-related protein Rap-1A. Nature of the assay: Binding affinity to RAP1A in human RBC membrane by surface plasmon resonance analysis. On the technique in general: SPR reads the build-up and loss of mass on a sensor chip optically.
For assay [3], the target named is T1, Ras-related protein Rap-1A. As to the kind of experiment: Binding affinity to RAP1A in human RBC membrane by surface plasmon resonance analysis with inverted configuration.

For `C=CCC(=C)/C=C/[C@@](C)(O)[C@H]1O[C@@H]2C[C@@H]3O[C@@H]4C[C@@H]5O[C@@H]6C[C@@H]7O[C@@H]8C[C@@H]9O[C@@H]%10C[C@@H]%11O[C@](C)(CCOS(=O)(=O)O)[C@@H](OS(=O)(=O)O)C[C@H]%11O[C@H]%10C[C@H]9O[C@H]8CC[C@@]7(C)O[C@@]6(C)CC[C@H](C)[C@H]5O[C@H]4C[C@@]3(C)O[C@H]2CC1=C` [YESSOTOXIN], the Kd in assay [1] and in assay [2] was 4 µM in each case.
Take `C=CCC(=C)/C=C/[C@@](C)(O)[C@H]1O[C@@H]2C[C@@H]3O[C@@H]4C[C@@H]5O[C@@H]6C[C@@H]7O[C@@H]8C[C@@H]9O[C@@H]%10C[C@@H]%11O[C@](C)(CCO)[C@@H](O)C[C@H]%11O[C@H]%10C[C@H]9O[C@H]8CC[C@@]7(C)O[C@@]6(C)CC[C@H](C)[C@H]5O[C@H]4[C@@H](O)[C@@]3(C)O[C@H]2CC1=C` [DESULFO-YESSOTOXIN]: the Kd in assay [3] was 0.5 µM.

Values taken from ChEMBL document CHEMBL1268998, “Detection of Rap1A as a yessotoxin binding protein from blood cell membranes” (Bioorg Med Chem Lett, 2010).
